We go through 4 compounds from patent publication US11464749B2, “Bismuth-thiol compositions and methods of use” (Microbion Corporation, priority 2018, dated 2022).

The test system of experiment [1] is C. parapsilosis. The experiment can be described thus: Broth microdilution MIC, yeast (Example 11). Format: cell-based. On the technique in general: Broth dilution looks for growth in wells or tubes with falling amounts of substance.
A further experiment deals with C. albicans. The experiment can be described thus: Broth microdilution MIC, yeast (Example 11). The format is cell-based. The conditions noted are these: Sensitive.
A further experiment has as its system C. glabrata. The experiment can be described thus: Broth microdilution MIC, yeast (Example 11). Format: cell-based. The conditions noted are these: FLU^R.
A further experiment concerns C. tropicalis. The experiment can be described thus: Broth microdilution MIC, yeast (Example 11). The conditions noted are these: FLU^R. Format: cell-based.
For experiment [2], the system named is C. parapsilosis. The conditions noted are these: C. parapsilosis MMX 2323 (ATCC 22019), cited from earlier work.
In another experiment the test system is M. abscessus complex. The experiment can be described thus: MIC against CF bacterial strains (Example 5). The format is cell-based, Mycobacterium abscessus. The conditions noted are these: Mycobacteroides abscessus, read-out: MIC. The method, then:
A range of CF-isolated strains of Mycobacterium avium and Mycobacterium abscessus were included; which allows for understanding of the activity against non-tubercular Mycobacteria (NTM). Two distinct bismuth-thiol compounds were evaluated, including BisEDT and BisBDT. […] The CF-isolates of greater clinical relevance, including both M abscessus spp. and Burkholderia spp., were both consistently found to be much more susceptible to BisEDT and BisBDT.

Another experiment relates to S. aureus ATCC 29213. The conditions noted are these: control strain ATCC 29213; per CLSI M100-S24 or provided by Microbion; cited from earlier work.
The test system of a further experiment is Escherichia coli. The conditions noted are these: E. coli MMX 102 (ATCC 25922); CLSI QC ranges shown in parenthesis; cited from earlier work.
The subject of experiment [3] is Pseudomonas aeruginosa. The conditions noted are these: P. aeruginosa MMX 103 (ATCC 27853); CLSI QC ranges shown in parenthesis; cited from earlier work.
Experiment [4] deals with Pseudomonas aeruginosa. The experiment can be described thus: Broth microdilution MIC (Example 11).
The next experiment deals with Acinetobacter baumannii. The experiment can be described thus: Broth microdilution MIC (Example 11).
In a further experiment the test system is E. faecalis. The experiment can be described thus: Broth microdilution MIC (Example 11). The conditions noted are these: VRE Lev^R Cip^R Ery^R.
Another experiment concerns E. faecium. The experiment can be described thus: Broth microdilution MIC (Example 11). The conditions noted are these: VRE vanA Lev^R Cip^R Ery^R.

Converted amounts (≈) assume the structure as drawn. Like-named read-outs stand apart in the source and are kept apart here.

In general, MIC refers to the lowest concentration found to suppress growth.

With `C[C@@H]1[C@H](O)[C@@H](C)/C=C/C=C/C=C/C=C/C=C/C=C/C=C/[C@H](O[C@@H]2O[C@H](C)[C@@H](O)[C@H](N)[C@@H]2O)C[C@@H]2O[C@](O)(C[C@@H](O)C[C@@H](O)[C@H](O)CC[C@@H](O)C[C@@H](O)CC(=O)O[C@H]1C)C[C@H](O)[C@H]2C(=O)O` [Amphotericin B], the MIC came out at 0.5 µg/mL (≈ 0.541 µM) in the experiment with C. parapsilosis [1] (C. parapsilosis MMX 2323 (ATCC 22019), QC, 24 hr); 1 µg/mL (≈ 1.08 µM) against C. parapsilosis [1] (C. parapsilosis MMX 2323 (ATCC 22019), QC, 48 hr); 0.5 µg/mL (≈ 0.541 µM) against C. parapsilosis [1] (C. parapsilosis MMX 7370, FLU^R, 24 hr); 1 µg/mL (≈ 1.08 µM) in the experiment with C. parapsilosis [1] (C. parapsilosis MMX 7370, FLU^R, 48 hr); 0.25 µg/mL (≈ 0.271 µM) against C. albicans (C. albicans MMX 7055, 24 hr); 0.5 µg/mL (≈ 0.541 µM) against C. albicans (C. albicans MMX 7055, 48 hr). Also, the MIC amounted to 0.5 µg/mL (≈ 0.541 µM) against C. glabrata (C. glabrata MMX 7086, 24 hr); 1 µg/mL (≈ 1.08 µM) in the experiment with C. glabrata (C. glabrata MMX 7086, 48 hr); 0.5 µg/mL (≈ 0.541 µM) with C. glabrata (C. glabrata MMX 7318, 24 hr); 1 µg/mL (≈ 1.08 µM) against C. glabrata (C. glabrata MMX 7318, 48 hr); 0.5 µg/mL (≈ 0.541 µM) against C. tropicalis (C. tropicalis MMX 7247, 24 hr); 1 µg/mL (≈ 1.08 µM) against C. tropicalis (C. tropicalis MMX 7247, 48 hr). Moreover, the MIC with C. tropicalis (C. tropicalis MMX 7248, 24 hr) stood at 0.5 µg/mL (≈ 0.541 µM); in the experiment on C. tropicalis (C. tropicalis MMX 7248, 48 hr), 1 µg/mL (≈ 1.08 µM). Also, the “MIC, CLSI QC range” value in the experiment with C. parapsilosis [2] (48 hr) was 0.5 to 4 µg/mL.

As for `CC[C@H]1OC(=O)[C@H](C)[C@@H](O[C@H]2C[C@@](C)(OC)[C@@H](O)[C@H](C)O2)[C@H](C)[C@@H](O[C@@H]2O[C@H](C)C[C@H](N(C)C)[C@H]2O)[C@](C)(OC)C[C@@H](C)C(=O)[C@H](C)[C@@H](O)[C@]1(C)O` [Clarithromycin, reference compound], the MIC in the experiment with M. abscessus complex (AMT0130-8, M abscessus/massiliense complex) is 1 µg/mL (≈ 1.34 µM); with M. abscessus complex (AMT153-9, M abscessus/massiliense complex), 2 µg/mL (≈ 2.67 µM); in the experiment with M. abscessus complex (AMT0493-2, M abscessus/massiliense complex, Amikacin resistant), 2 µg/mL (≈ 2.67 µM); in the experiment with M. abscessus complex (ATCC19977, ATCC 19977, M abscessus/massiliense complex, Macrolide resistant (inducible)) it was > 32 µg/mL. In addition, in the experiment with S. aureus ATCC 29213, the “Expected MIC: goal (acceptable range)” value is 0.25 (0.12-0.5) mcg/mL.

Turning to `OC(Cn1cncn1)(Cn1cncn1)c1ccc(F)cc1F` [fluconazole, Fluconazole, reference compound], the MIC was 32 µg/mL (≈ 104 µM) in the experiment with C. parapsilosis [1] (Lodderomyces parapsilosis, 24 h, C. parapsilosis MMX 7370, FLU^R, 24 hr, read-out: MIC (converted)); 32 µg/mL (≈ 104 µM) in the experiment on C. parapsilosis [1] (Lodderomyces parapsilosis, 24 h, C. parapsilosis MMX 7555, FLU^R, 24 hr, read-out: MIC (converted)); 32 µg/mL (≈ 104 µM) in the experiment on C. parapsilosis [1] (Lodderomyces parapsilosis, 48 h, C. parapsilosis MMX 7370, FLU^R, 48 hr, read-out: MIC (converted)); 64 µg/mL (≈ 209 µM) with C. parapsilosis [1] (Lodderomyces parapsilosis, 48 h, C. parapsilosis MMX 7555, FLU^R, 48 hr, read-out: MIC (converted)); 2 µg/mL (≈ 6.53 µM) in the experiment on C. parapsilosis [1] (Lodderomyces parapsilosis, ATCC22019, 24 h, C. parapsilosis MMX 2323 (ATCC 22019), QC, 24 hr, read-out: MIC (converted)); 2 µg/mL (≈ 6.53 µM) in the experiment on C. parapsilosis [1] (Lodderomyces parapsilosis, ATCC22019, 48 h, C. parapsilosis MMX 2323 (ATCC 22019), QC, 48 hr, read-out: MIC (converted)). Further, the MIC is 0.5 µg/mL (≈ 1.63 µM) in the experiment with C. albicans (Candida albicans, 24 h, C. albicans MMX 7039, 24 hr, read-out: MIC); 0.25 µg/mL (≈ 0.816 µM) with C. albicans (Candida albicans, 24 h, C. albicans MMX 7055, 24 hr, read-out: MIC); 0.5 µg/mL (≈ 1.63 µM) in the experiment on C. albicans (Candida albicans, 48 h, C. albicans MMX 7039, 48 hr, read-out: MIC); 0.5 µg/mL (≈ 1.63 µM) with C. albicans (Candida albicans, 48 h, C. albicans MMX 7055, 48 hr, read-out: MIC); 32 µg/mL (≈ 104 µM) with C. glabrata (Nakaseomyces glabratus, 24 h, C. glabrata MMX 7086, 24 hr, read-out: MIC); > 64 µg/mL with C. glabrata (Nakaseomyces glabratus, 24 h, C. glabrata MMX 7318, 24 hr, read-out: MIC). In addition, the MIC with C. glabrata (Nakaseomyces glabratus, 48 h, C. glabrata MMX 7086, 48 hr, read-out: MIC) is 64 µg/mL (≈ 209 µM); in the experiment with C. glabrata (Nakaseomyces glabratus, 48 h, C. glabrata MMX 7318, 48 hr, read-out: MIC), > 64 µg/mL; with C. tropicalis (Candida tropicalis, 24 h, C. tropicalis MMX 7247, 24 hr, read-out: MIC), 64 µg/mL (≈ 209 µM); with C. tropicalis (Candida tropicalis, 24 h, C. tropicalis MMX 7248, 24 hr, read-out: MIC), 32 µg/mL (≈ 104 µM); with C. tropicalis (Candida tropicalis, 24 h, C. tropicalis MMX 7360, 24 hr, read-out: MIC) it was 64 µg/mL (≈ 209 µM); in the experiment on C. tropicalis (Candida tropicalis, 48 h, C. tropicalis MMX 7247, 48 hr, read-out: MIC) it was > 64 µg/mL. The MIC was > 64 µg/mL in the experiment on C. tropicalis (Candida tropicalis, 48 h, C. tropicalis MMX 7248, 48 hr, read-out: MIC) and > 64 µg/mL in the experiment with C. tropicalis (Candida tropicalis, 48 h, C. tropicalis MMX 7360, 48 hr, read-out: MIC). Besides, the figures for the “MIC, CLSI QC range” value with C. parapsilosis [2] (24 hr) and with C. parapsilosis [2] (48 hr) were 0.5 to 4 µg/mL and 1 to 4 µg/mL, respectively.

With Gentamicin, the “CLSI QC range of MIC” value in the experiment on Escherichia coli was “(0.25-1) μg/mL”; with Pseudomonas aeruginosa [3] it was “(0.5-2) μg/mL”. Besides, the MIC was 1 µg/mL in the experiment on Pseudomonas aeruginosa [4] (P. aeruginosa MMX 103 (ATCC 27853), QC); 8 µg/mL in the experiment with Pseudomonas aeruginosa [4] (P. aeruginosa MMX 1381, MDR, Lev^R, Cip^R, MEM^R, CAZ^R); 8 µg/mL in the experiment on Pseudomonas aeruginosa [4] (P. aeruginosa MMX 2562, MDR, Lev^R, Cip^R, MEM^R, CAZ^R); 4 µg/mL with Pseudomonas aeruginosa [4] (P. aeruginosa MMX 3991, MDR, Lev^R, Cip^R, MEM^R, CAZ^R); >64 µg/mL against Pseudomonas aeruginosa [4] (P. aeruginosa MMX 4654, IMP-7, Lev^R, Cip^R, MEM^R, CAZ^R); 4 µg/mL in the experiment with Pseudomonas aeruginosa [4] (P. aeruginosa MMX 4697, VIM-2, Lev^R, Cip^R, MEM^R, CAZ^R). Also, the MIC is >64 µg/mL against Acinetobacter baumannii (A. baumannii MMX 2592, MDR, Lev^R, Cip^R, MEM^R, CAZ^R, Gm^R); >64 µg/mL in the experiment on Acinetobacter baumannii (A. baumannii MMX 2593, MDR, Lev^R, Cip^R, MEM^R, CAZ^R, Gm^R); 0.5 µg/mL against Acinetobacter baumannii (A. baumannii MMX 3372, MDR, Cip^R, MEM^I, CAZ^I); 0.12 µg/mL against Acinetobacter baumannii (A. baumannii MMX 3373, Sensitive); 8 µg/mL against Acinetobacter baumannii (A. baumannii MMX 4651 (NCTC 13304), MDR, OXA-27, Lev^R, Cip^R, MEM^R, CAZ^R, Gm^I); >64 µg/mL in the experiment with E. faecalis (E. faecalis MMX 8960). In addition, the MIC is 8 µg/mL in the experiment on E. faecalis (E. faecalis MMX 8961), >64 µg/mL against E. faecalis (E. faecalis MMX 8962), >64 µg/mL against E. faecium (E. faecium MMX 485) and >64 µg/mL in the experiment with E. faecium (E. faecium MMX 752).
